The source of these data is ChEMBL document CHEMBL5036364, “Cadinane-Type Sesquiterpenoids with Cytotoxic Activity from the Infected Stems of the Semi-mangrove Hibiscus tiliaceus” (J Nat Prod, 2022).

A value given as a limit tells only on which side of the number the result lay.

In one assay the test system is Huh-7. Description: Cytotoxicity against human Huh-7 cells assessed as inhibition of cell growth in presence of 10% fetal bovine serum measured after 48 hrs incubation by MTT assay. The assay is classed as functional, cell-based. As to conditions: Huh-7, 48 h.
The test system of a further assay is HepG2. Description: Cytotoxicity against human HepG2 cells assessed as inhibition of cell growth n presence of 10% fetal bovine serum measured after 48 hrs incubation by MTT assay. The class given is functional, cell-based. As to conditions: HepG2, 48 h.

As for `COc1c(O)c(C)cc2c(C(C)C)cc(O)c(C=O)c12`, the half-maximal inhibitory concentration (IC50) in the assay with Huh-7 and in the assay on HepG2 was over 10 µM each time.

Turning to `COc1c(C)cc2c(C(C)C)cc(O)c(C=O)c2c1O`, the half-inhibitory concentration (IC50) in the assay with Huh-7 and in the assay on HepG2 was over 10 µM in each case.

Take `CO[C@@]1(C)C[C@@H]2c3c(coc3C1=O)C(=O)C[C@H]2C(C)C`: the figures for the half-inhibitory concentration (IC50) with Huh-7 and in the assay with HepG2 were 6.6 µM and 4.8 µM, respectively.

With `Cc1cc2c(C(C)C)cc(O)c(C=O)c2oc1=O`, the results for the IC50 in the assay on Huh-7 and with HepG2 were 4 µM and 3.7 µM, respectively.

In the case of `CC(C)[C@@H]1C=Cc2coc3c2[C@H]1C[C@@H](C)C3=O`, the figures for the 50% inhibitory concentration (IC50) in the assay with Huh-7 and with HepG2 were 6.4 µM and 6.8 µM, respectively.

The IC50 is the point on the concentration scale where inhibition reaches its midpoint.
